From US10329302B2, “Bicyclic-fused heteroaryl or aryl compounds” (Pfizer Inc., priority 2014, dated 2019)
pIC50: −log10 of the molar value.

target: human IRAK4 kinase domain (aa 154-460) (Homo sapiens (Human), UniProt Q9NWZ3); experiment: IRAK4 Enzymatic DELFIA Assay, Protocol B; type: biochemical; details: not given
Excerpt: IRAK4 Enzymatic DELFIA Assay, Protocol B.

human IRAK4 kinase domain (aa 154-460), sequence (Q9NWZ3 154-460): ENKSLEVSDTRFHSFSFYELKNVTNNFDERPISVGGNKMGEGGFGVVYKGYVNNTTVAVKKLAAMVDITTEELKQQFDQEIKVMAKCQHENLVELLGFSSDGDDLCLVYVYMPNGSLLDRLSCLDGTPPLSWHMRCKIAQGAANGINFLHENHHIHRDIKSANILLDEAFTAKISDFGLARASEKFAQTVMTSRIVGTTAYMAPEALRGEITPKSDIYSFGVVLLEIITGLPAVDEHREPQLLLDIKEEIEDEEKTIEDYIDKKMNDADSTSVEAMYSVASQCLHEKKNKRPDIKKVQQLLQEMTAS

| SMILES | pIC50 |
| --- | --- |
| CC(C)Oc1cc2c(OC3CC[C@@H]4CN(C(=O)CC#N)C[C@H]34)ccnc2cc1C(N)=O (single isomer, unassigned) [Example 71] | 6.82 |
| CC(C)Oc1cc2c(OC3C4CC5C(C4)C53)ccnc2cc1C(N)=O (stereo not drawn) [Example 17, 6-(propan-2-yloxy)-4-(tricyclo[2.2.1.0~2,6~]hept-3-yloxy)quinoline-7-carboxamide] | 6.32 |

same assay, conditions: human IRAK4 kinase domain (aa 154-460), 0.6 mM ATP (KM); read-out: IRAK4 DELFIA Protocol B IC50

| SMILES | pIC50 |
| --- | --- |
| CC(C)Oc1cc2c(OC[C@@]34CNCC[C@@H]3C4)nccc2cc1C(N)=O [Example 161, 1-[(1R,6S)-3-azabicyclo[4.1.0]hept-1-ylmethoxy]-7-(propan-2-yloxy)isoquinoline-6-carboxamide] | 7.06 |
| CC(C)Oc1cc2c(OC[C@H]3CNCCO3)ccnc2cc1C(N)=O [Example 53, 4-[(2R)-morpholin-2-ylmethoxy]-6-(propan-2-yloxy)quinoline-7-carboxamide] | 5.62 |
| CC(C)Oc1cc2c(O[C@@H]3CC4CC[C@H]3C4)ccnc2cc1C(N)=O [Example 19, 4-[(1S,2R)-bicyclo[2.2.1]hept-2-yloxy]-6-(propan-2-yloxy)quinoline-7-carboxamide] | 6.45 |
| CC(C)Oc1cc2c(OCC3(C)CCN(C(=O)CC#N)CC3)nccc2cc1C(N)=O [Example 86, 1-{[1-(cyanoacetyl)-4-methylpiperidin-4-yl]methoxy}-7-(propan-2-yloxy)isoquinoline-6-carboxamide] | 6.67 |
| CC(C)Oc1cc2c(OCC3CNC3)ccnc2cc1C(N)=O [Example 1, 4-(azetidin-3-ylmethoxy)-6-(propan-2-yloxy)quinoline-7-carboxamide] | 5.54 |
| CO[C@H]1CN(C(=O)CC#N)C[C@@H]1COc1nccc2cc(C(N)=O)c(OC(C)C)cc12 [Example 84, 1-{[(3R,4R)-1-(cyanoacetyl)-4-methoxypyrrolidin-3-yl]methoxy}-7-(propan-2-yloxy)isoquinoline-6-carboxamide] | 6.27 |
| CC(C)Oc1cc2c(OC[C@H]3CCNC3)nccc2cc1C(N)=O [Example 49, 7-(propan-2-yloxy)-1-[(3S)-pyrrolidin-3-ylmethoxy]isoquinoline-6-carboxamide] | 6.35 |
| CC(C)Oc1cc2c(OC3CC[C@@H]4CNC[C@H]34)nccc2cc1C(N)=O (stereo partly drawn) [Example 20, 1-[(3aR,6aS)-octahydrocyclopenta[c]pyrrol-4-yloxy]-7-(propan-2-yloxy)isoquinoline-6-carboxamide] | 6.99 |
| CC(C)Oc1cc2c(OCC3CCCN(C)C3)nccc2cc1C(N)=O (stereo not drawn) [Example 45, 1-[(1-methylpiperidin-3-yl)methoxy]-7-(propan-2-yloxy)isoquinoline-6-carboxamide] | 5.72 |
| CC(C)Oc1cc2c(OC3CCC34CCNCC4)ccnc2cc1C(N)=O (stereo not drawn) [Example 52, 4-(7-azaspiro[3.5]non-1-yloxy)-6-(propan-2-yloxy)quinoline-7-carboxamide] | 5.37 |
| CC(C)Oc1cc2c(OC[C@H]3CCCO3)ccnc2cc1C(N)=O [Example 15, 6-(propan-2-yloxy)-4-[(2R)-tetrahydrofuran-2-ylmethoxy]quinoline-7-carboxamide] | 5.53 |
| CC(C)Oc1cc2c(OCC3CCN(C(=O)CC#N)CC3)ccnc2cc1C(N)=O [Example 100, 4-{[1-(cyanoacetyl)piperidin-4-yl]methoxy}-6-(propan-2-yloxy)quinoline-7-carboxamide] | 6.32 |
| CC(C)Oc1cc2c(OCC3CCCCO3)nccc2cc1C(N)=O (stereo not drawn) [Example 25, 7-(propan-2-yloxy)-1-(tetrahydro-2H-pyran-2-ylmethoxy)isoquinoline-6-carboxamide] | 5.95 |
| CC(C)Oc1cc2c(OC3C[C@@H]4CN[C@H]3C4)nccc2cc1C(N)=O (stereo partly drawn) [Example 72, 1-[(1S,4R)-2-azabicyclo[2.2.1]hept-6-yloxy]-7-(propan-2-yloxy)isoquinoline-6-carboxamide] | 5.58 |
| CC(C)Oc1cc2c(OCC3CCCO3)ccnc2cc1C(N)=O (stereo not drawn) [Example 11, 6-(propan-2-yloxy)-4-(tetrahydrofuran-2-ylmethoxy)quinoline-7-carboxamide] | 5.49 |
| CC(C)Oc1cc2c(OCC3(F)CCN(C(=O)CC#N)CC3)nccc2cc1C(N)=O [Example 76, 1-{[1-(cyanoacetyl)-4-fluoropiperidin-4-yl]methoxy}-7-(propan-2-yloxy)isoquinoline-6-carboxamide] | 5.76 |
| CC(C)Oc1cc2c(OC[C@@H]3CCNC3)cccc2cc1C(N)=O [Example 115, 3-(propan-2-yloxy)-5-[(3R)-pyrrolidin-3-ylmethoxy]naphthalene-2-carboxamide] | 7.21 |
| CC(C)Oc1cc2c(OC[C@H]3[C@@H]4CNC[C@@H]43)ccnc2cc1C(N)=O [Example 5, 4-[(1R,5S,6r)-3-azabicyclo[3.1.0]hex-6-ylmethoxy]-6-(propan-2-yloxy)quinoline-7-carboxamide] | 6.49 |
| CC(C)Oc1cc2c(O[C@@H]3CC4CCC3C4)ccnc2cc1C(N)=O (stereo partly drawn) [Example 14, 4-[(2R)-bicyclo[2.2.1]hept-2-yloxy]-6-(propan-2-yloxy)quinoline-7-carboxamide] | 6.64 |
| CC(C)Oc1cc2c(OC[C@]34CNC[C@H]3C4)nccc2cc1C(N)=O [Example 139, 1-[(1S,5S)-3-azabicyclo[3.1.0]hex-1-ylmethoxy]-7-(propan-2-yloxy)isoquinoline-6-carboxamide] | 6.59 |
| CC(C)Oc1cc2c(OC[C@@H]3CCN3)nccc2cc1C(N)=O [Example 119, 1-[(2S)-azetidin-2-ylmethoxy]-7-(propan-2-yloxy)isoquinoline-6-carboxamide] | 5.84 |
| CC(C)Oc1cc2c(OCC3CCCCN3)nccc2cc1C(N)=O (stereo not drawn) [Example 43, 1-(piperidin-2-ylmethoxy)-7-(propan-2-yloxy)isoquinoline-6-carboxamide] | 5.48 |
| CC(C)Oc1cc2c(OCC3CCNCC3)ccnc2cc1C(N)=O [Example 4, 4-(piperidin-4-ylmethoxy)-6-(propan-2-yloxy)quinoline-7-carboxamide] | 6.04 |
| CC(C)Oc1cc2c(OCC3CCNC3)nccc2cc1C(N)=O (stereo not drawn) [Example 191, 7-(propan-2-yloxy)-1-(pyrrolidin-3-ylmethoxy)isoquinoline-6-carboxamide] | 6.60 |
| CC(C)Oc1cc2c(OC[C@H]3CN(C(=O)CC#N)C[C@@H]3C)ccnc2cc1C(N)=O [Example 88, 4-{[(3R,4R)-1-(cyanoacetyl)-4-methylpyrrolidin-3-yl]methoxy}-6-(propan-2-yloxy)quinoline-7-carboxamide] | 6.53 |
| CC(C)Oc1cc2c(OC[C@@H]3CN(C(=O)CC#N)CCO3)ccnc2cc1C(N)=O [Example 98, 4-{[(2S)-4-(cyanoacetyl)morpholin-2-yl]methoxy}-6-(propan-2-yloxy)quinoline-7-carboxamide] | 6.24 |
| CC(C)Oc1cc2c(OCC3COC(=O)N3C)nccc2cc1C(N)=O (stereo not drawn) [Example 29, 1-[(3-methyl-2-oxo-1,3-oxazolidin-4-yl)methoxy]-7-(propan-2-yloxy)isoquinoline-6-carboxamide] | 7.12 |
| CC(C)Oc1cc2c(OC3C[C@@H]4C[C@H]3CN(C(=O)CC#N)C4)ccnc2cc1C(N)=O (stereo in doubt) [Example 92, 4-{[(1S,5S,6S)-3-(cyanoacetyl)-3-azabicyclo[3.2.1]oct-6-yl]oxy}-6-(propan-2-yloxy)quinoline-7-carboxamide] | 6.33 |
